The term IC50 denotes the concentration that gives 50% inhibition. High values mean lower potency, low ones higher potency.

Twelve compounds from patent publication US10828315B2 (Madrigal Pharmaceuticals, Inc., priority 2013, dated 2020) can be followed below.

Values joined by “and” are separate entries in the source; they are usually repeats but may differ in a detail not shown here. Equal values may be shown once. Some results are limits rather than exact numbers.

The nature of data set [1]: Mouse plasma stability protocol, up to 1 h (Examples 16-18).
The test system of another data set is HER2. As to the kind of experiment: HER2 degradation assay with BT-474 cell line (Example 12, FACS). The data set is classed as cell-based, human.
[2] abbreviates: % Remaining of parent after 1 h incubation in mouse plasma at 37° C. (10 μM).

Consider `CCc1c2c(nc3ccc(O)cc13)-c1cc3c(c(=O)n1C2)COC(=O)C3(CC)OC(=O)CN1CCC(Cc2ccc(-n3c(O)nnc3-c3cc(C(C)C)c(O)cc3O)cc2)CC1` (stereo not shown) [SDC-TRAP-0071, 4,11-diethyl-9-hydroxy-3,14-dioxo-3,4,12,14-tetrahydro-1H-pyrano[3′,4′:6,7]indolizino[1,2-b]quinolin-4-yl 2-(4-(4-(3-(2,4-dihydroxy-5-isopropylphenyl)-5-hydroxy-4H-1,2,4-triazol-4-yl)benzyl)piperidin-1-yl)acetate], for which the “% Remaining (1 h)” value in data set [1] (setting [2]) is 102%. In data set [1] (mouse plasma, 37° C.), the “% Remaining (1 h, 37° C.)” value is 102%. This compound yielded a half-inhibitory concentration (IC50) in the data set on HER2 of 307 nM. As to `CCNC(=O)c1nnc(-c2cc(C(C)C)c(O)cc2O)n1-c1ccc(Oc2ccc(N(C)C(=O)Oc3ccc4nc5c(c(CC)c4c3)Cn3c-5cc4c(c3=O)COC(=O)[C@]4(O)CC)cc2)cc1` [SDC-TRAP-0145, (S)-4,11-diethyl-4-hydroxy-3,14-dioxo-3,4,12,14-tetrahydro-1H-pyrano[3′,4′:6,7]indolizino[1,2-b]quinolin-9-yl (4-(4-(3-(2,4-dihydroxy-5-isopropylphenyl)-5-(ethylcarbamoyl)-4H-1,2,4-triazol-4-yl)phenoxy)phenyl)(methyl)carbamate], the “% Remaining (1 h)” value in data set [1] (setting [2]) was 14.1%. Besides, the “% Remaining (1 h, 37° C.)” value in data set [1] (mouse plasma, 37° C.) worked out at 14.1%. Besides, the midpoint of inhibition in the data set on HER2, the IC50, lay at 183 nM. As to `CCNC(=O)c1nnc(-c2cc(C(C)C)c(O)cc2O)n1-c1ccc(Oc2ccc(C(=O)N3CCC(OC(=O)OC4(CC)C(=O)OCc5c4cc4n(c5=O)Cc5c-4nc4ccc(O)cc4c5CC)CC3)cc2)cc1` (stereo not shown) [SDC-TRAP-0203, 4,11-Diethyl-9-hydroxy-3,14-dioxo-3,4,12,14-tetrahydro-1H-pyrano[3′,4′:6,7]indolizino[1,2-b]quinolin-4-yl (1-(4-(4-(3-(2,4-dihydroxy-5-isopropylphenyl)-5-(ethylcarbamoyl)-4H-1,2,4-triazol-4-yl)phenoxy)benzoyl)piperidin-4-yl) carbonate], in data set [1] (mouse plasma, 37° C.), the “% Remaining (1 h, 37° C.)” value is 71.2%. Besides, the IC50 in the data set with HER2 is 446 nM. Consider `CCc1c2c(nc3ccc(O)cc13)-c1cc3c(c(=O)n1C2)COC(=O)[C@@]3(CC)OC(=O)N1CCC(CCc2ccc(-n3c(O)nnc3-c3cc(C(C)C)c(O)cc3O)cc2)CC1` [SDC-TRAP-0104, (S)-4,11-diethyl-9-hydroxy-3,14-dioxo-3,4,12,14-tetrahydro-1H-pyrano[3′,4′:6,7]indolizino[1,2-b]quinolin-4-yl 4-(4-(3-(2,4-dihydroxy-5-isopropylphenyl)-5-hydroxy-4H-1,2,4-triazol-4-yl)phenethyl)piperidine-1-carboxylate], for which, in data set [1] (setting [2]), the “% Remaining (1 h)” value is 95.5%. Besides, the “% Remaining (1 h, 37° C.)” value in data set [1] (mouse plasma, 37° C.) is 95.5%. In the data set on HER2, this compound returned an IC50 of 350 nM.

Regarding `CCNC(=O)c1nnc(-c2cc(C(C)C)c(O)cc2O)n1-c1ccc(CN2CCC(C(=O)N3CCC(N(C)C(=O)Oc4ccc5nc6c(c(CC)c5c4)Cn4c-6cc5c(c4=O)COC(=O)C5(O)CC)CC3)CC2)cc1` (stereo not shown) [SDC-TRAP-0172, 4,11-diethyl-4-hydroxy-3,14-dioxo-3,4,12,14-tetrahydro-1H-pyrano[3′,4′:6,7]indolizino[1,2-b]quinolin-9-yl (1-(1-(4-(3-(2,4-dihydroxy-5-isopropylphenyl)-5-(ethylcarbamoyl)-4H-1,2,4-triazol-4-yl)benzyl)piperidine-4-carbonyl)piperidin-4-yl)(methyl) carbamate], the “% Remaining (1 h)” value is reported as 74.7% in data set [1] (setting [2]) and 74.7% in data set [1] (mouse plasma, 37° C., 10 μM). Further, in data set [1] (mouse plasma, 37° C.), the “% Remaining (1 h, 37° C.)” value is 74.7%. The IC50 in the data set on HER2 was < 78 nM and 56 nM. In the case of `CCc1c2c(nc3ccc(O)cc13)-c1cc3c(c(=O)n1C2)COC(=O)[C@@]3(CC)OC(=O)N1CCN(c2ccc(-n3c(O)nnc3-c3cc(C(C)C)c(O)cc3O)cn2)CC1` [SDC-TRAP-0091, (S)-4,11-diethyl-9-hydroxy-3,14-dioxo-3,4,12,14-tetrahydro-1H-pyrano[3′,4′:6,7]indolizino[1,2-b]quinolin-4-yl 4-(5-(3-(2,4-dihydroxy-5-isopropylphenyl)-5-hydroxy-4H-1,2,4-triazol-4-yl)pyridin-2-yl)piperazine-1-carboxylate], in the data set on HER2, the IC50 was above 5000 nM. Consider `CCc1c2c(nc3ccc(OC(=O)N4CCN(C(=O)c5cc6cc(-n7c(O)nnc7-c7cc(C(C)C)c(O)cc7O)ccc6n5C)CC4)cc13)-c1cc3c(c(=O)n1C2)COC(=O)C3(O)CC` (stereo not shown) [SDC-TRAP-0072, 4,11-diethyl-4-hydroxy-3,14-dioxo-3,4,12,14-tetrahydro-1H-pyrano[3′,4′:6,7]indolizino[1,2-b]quinolin-9-yl 4-(5-(3-(2,4-dihydroxy-5-isopropylphenyl)-5-hydroxy-4H-1,2,4-triazol-4-yl)-1-methyl-1H-indole-2-carbonyl)piperazine-1-carboxylate], for which the IC50 in the data set on HER2 is above 5000 nM.

`CCNC(=O)c1nnc(-c2cc(C(C)C)c(O)cc2O)n1-c1ccc(Oc2ccc(C(=O)N(C)CCC(=O)OC3(CC)C(=O)OCc4c3cc3n(c4=O)Cc4c-3nc3ccc(O)cc3c4CC)cc2)cc1` (stereo not shown) [SDC-TRAP-0169, 4,11-diethyl-9-hydroxy-3,14-dioxo-3,4,12,14-tetrahydro-1H-pyrano[3′,4′:6,7]indolizino[1,2-b]quinolin-4-yl 3-(4-(4-(3-(2,4-dihydroxy-5-isopropylphenyl)-5-(ethylcarbamoyl)-4H-1,2,4-triazol-4-yl)phenoxy)-N-methylbenzamido)propanoate] displayed an IC50 in the data set on HER2 of 611 nM. The compound `CCc1c2c(nc3ccc(O)cc13)-c1cc3c(c(=O)n1C2)COC(=O)[C@@]3(CC)OC(=O)N(C)CCCN1CCN(Cc2ccc(-n3c(O)nnc3-c3cc(C(C)C)c(O)cc3O)cc2)CC1` [SDC-TRAP-0084, (S)-4,11-diethyl-9-hydroxy-3,14-dioxo-3,4,12,14-tetrahydro-1H-pyrano[3′,4′:6,7]indolizino[1,2-b]quinolin-4-yl (3-(4-(4-(3-(2,4-dihydroxy-5-isopropylphenyl)-5-hydroxy-4H-1,2,4-triazol-4-yl)benzyl)piperazin-1-yl)propyl)(methyl)carbamate] showed an IC50 with HER2 of 1130 nM. On the same count and under the same terms, as for `CCc1c2c(nc3ccc(O)cc13)-c1cc3c(c(=O)n1C2)COC(=O)C3(CC)OC(=O)N1CCN(Cc2ccc(-n3c(O)nnc3-c3cc(C(C)C)c(O)cc3O)cc2F)CC1` (stereo not shown) [SDC-TRAP-0079, 4,11-diethyl-9-hydroxy-3,14-dioxo-3,4,12,14-tetrahydro-1H-pyrano[3′,4′:6,7]indolizino[1,2-b]quinolin-4-yl 4-(4-(3-(2,4-dihydroxy-5-isopropylphenyl)-5-hydroxy-4H-1,2,4-triazol-4-yl)-2-fluorobenzyl)piperazine-1-carboxylate], the figure is 1430 nM; as for `CCc1c2c(nc3ccc(O)cc13)-c1cc3c(c(=O)n1C2)COC(=O)C3(CC)OC(=O)N1CCN(c2ccc(-n3c(O)nnc3-c3cc(C(C)C)c(O)cc3O)cc2)CC1` (stereo not shown) [SDC-TRAP-0081, 4,11-diethyl-9-hydroxy-3,14-dioxo-3,4,12,14-tetrahydro-1H-pyrano[3′,4′:6,7]indolizino[1,2-b]quinolin-4-yl-4-(4-(3-(2,4-dihydroxy-5-isopropylphenyl)-5-hydroxy-4H-1,2,4-triazol-4-yl)phenyl)piperazine-1-carboxylate], 622 nM; as for `CCc1c2c(nc3ccc(O)cc13)-c1cc3c(c(=O)n1C2)COC(=O)C3(CC)OC(=O)CCC(=O)NCCn1ccc2cc(-n3c(O)nnc3-c3cc(C(C)C)c(O)cc3O)ccc21` (stereo not shown) [SDC-TRAP-0026], 1780 nM.
